# Experimental data from patent publication US20140272949A1, “Methods for Fully Segregating Recombinant Marine Cyanobacteria” (ALGENOL BIOFUELS INC., priority 2013, published 2014).
# Test system: PCC7002:pAB125 clones
# Experiment: Growth on low salt spectinomycin segregation plates
# Format: cell-based, Synechococcus sp. strain PCC 7002
# Protocol: 1 mL of the culture was washed once in BG-11 (2.500×g, 10 min spin) and streaked for single colonies on low salt media (BG-11+vB12) plates with various spectinomycin concentrations (sp15, 30, 60, 120, 240, 300, 360, and 500 μg/mL). These segregation plates were incubated at room temperature with low light overnight and then at 37° C. with continuous light or with a 12 h/12 h light/dark cycle for approximately 2 weeks.
compound,measurement,setting,value
CN[C@@H]1[C@H](O)[C@H](NC)[C@H]2O[C@@]3(O)C(=O)C[C@@H](C)O[C@H]3O[C@@H]2[C@H]1O [spectinomycin],growth on low salt plates,"240 and 300 mg/L of spectinomycin, BG-11+vB12, about 2 weeks",single colonies formed
same,growth on low salt plates,"higher spectinomycin concentrations (360, 500 μg/mL), BG-11+vB12",No colonies were found
same,growth on low salt plates,"spectinomycin at 15 to 120 mg/L, BG-11+vB12, about 2 weeks",abundant growth
